# ChEMBL document CHEMBL1201862, “PubChem BioAssay data set” (2004)
# The source made the active and inactive calls. Rule as the data show it, for most assays here: actives have a measured EC50 and inactives only a lower limit.
# Tests used:
# [1] = molecular target: Luciferin 4-monooxygenase (Photinus pyralis, UniProt P08659); test: inhibition of purified Photinus pyralis luciferase – biochemical, luminescence, dose response (AID 1891)
# [2] = Luminescence Cell-Based Dose Confirmation HTS to Identify Inhibitors of Platelet Dense Granule Release. [Related pubchem assays: 1663 (Primary HTS), 1678 (Summary of Project)]; format: functional
# Protein RecA = molecular target: T1, Protein RecA (Mycobacterium tuberculosis, UniProt P9WHJ3); test: Fluorescence Cell-Free Homogeneous Dose Retest to Identify Inhibitors of RecA-Intein Splicing Activity. [Related pubchem assays (depositor defined):AID2097, AID2223, AID489010, AID492950]; format: functional
# T1 sequence (P9WHJ3 whole entry): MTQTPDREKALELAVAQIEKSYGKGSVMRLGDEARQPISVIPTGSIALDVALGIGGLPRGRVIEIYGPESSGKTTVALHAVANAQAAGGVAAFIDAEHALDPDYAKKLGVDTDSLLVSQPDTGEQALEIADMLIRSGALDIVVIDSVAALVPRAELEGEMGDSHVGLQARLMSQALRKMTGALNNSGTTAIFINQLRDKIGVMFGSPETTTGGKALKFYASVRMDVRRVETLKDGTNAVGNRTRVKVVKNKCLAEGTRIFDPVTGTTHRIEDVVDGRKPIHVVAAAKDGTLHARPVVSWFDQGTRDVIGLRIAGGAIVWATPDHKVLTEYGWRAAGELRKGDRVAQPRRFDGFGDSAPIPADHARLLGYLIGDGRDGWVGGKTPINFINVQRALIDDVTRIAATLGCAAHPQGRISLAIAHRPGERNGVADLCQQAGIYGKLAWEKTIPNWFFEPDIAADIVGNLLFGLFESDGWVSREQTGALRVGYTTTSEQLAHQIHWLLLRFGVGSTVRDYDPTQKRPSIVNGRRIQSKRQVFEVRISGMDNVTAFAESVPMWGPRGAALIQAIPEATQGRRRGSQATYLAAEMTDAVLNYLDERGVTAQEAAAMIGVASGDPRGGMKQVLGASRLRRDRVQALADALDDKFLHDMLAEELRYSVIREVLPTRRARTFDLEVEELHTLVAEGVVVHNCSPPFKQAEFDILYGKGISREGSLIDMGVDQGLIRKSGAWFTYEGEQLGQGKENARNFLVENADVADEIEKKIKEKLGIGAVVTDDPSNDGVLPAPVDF
# [3] = molecular target: T2, Replicative DNA helicase DnaB (Mycobacterium tuberculosis, UniProt P9WMR3); test: DnaB intein splicing inhibitors, dose response, biochemical, cell-free fluorescence (AID 449749); format: functional
# T2 sequence (P9WMR3 whole entry): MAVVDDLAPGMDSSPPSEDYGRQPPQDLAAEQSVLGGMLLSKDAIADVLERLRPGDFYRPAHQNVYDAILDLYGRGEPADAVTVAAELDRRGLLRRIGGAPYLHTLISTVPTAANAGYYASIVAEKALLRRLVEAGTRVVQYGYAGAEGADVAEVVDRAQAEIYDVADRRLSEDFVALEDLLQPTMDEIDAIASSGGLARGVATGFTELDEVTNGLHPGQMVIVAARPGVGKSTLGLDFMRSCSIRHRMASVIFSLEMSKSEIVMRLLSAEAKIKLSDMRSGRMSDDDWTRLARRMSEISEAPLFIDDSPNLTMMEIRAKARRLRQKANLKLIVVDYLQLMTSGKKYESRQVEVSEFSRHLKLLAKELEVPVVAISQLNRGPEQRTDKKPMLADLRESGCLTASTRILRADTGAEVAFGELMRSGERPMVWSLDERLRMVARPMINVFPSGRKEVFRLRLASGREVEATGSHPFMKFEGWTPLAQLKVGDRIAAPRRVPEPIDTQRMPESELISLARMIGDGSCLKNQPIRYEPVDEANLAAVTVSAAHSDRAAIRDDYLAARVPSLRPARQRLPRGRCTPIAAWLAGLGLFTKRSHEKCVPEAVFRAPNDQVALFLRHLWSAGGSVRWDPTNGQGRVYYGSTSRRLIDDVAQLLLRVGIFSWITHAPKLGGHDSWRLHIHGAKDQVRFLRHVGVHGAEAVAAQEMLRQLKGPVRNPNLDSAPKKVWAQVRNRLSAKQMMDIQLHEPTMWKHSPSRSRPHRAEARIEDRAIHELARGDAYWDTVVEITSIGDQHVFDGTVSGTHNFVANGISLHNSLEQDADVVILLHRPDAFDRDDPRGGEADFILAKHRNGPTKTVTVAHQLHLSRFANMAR
# cells [4] = format: functional, cell-based
# cells [5] = format: functional, cell-based; remark: listed apart in the source
# [6] = Luminescence Cell-Based Dose Response HTS to Identify Inhibitors of 5'UTR Stem-Loop Driven Prion Protein mRNA Translation in H4 Neuroglioblastoma Cells. [Related pubchem assays: 1827 (Project Summary), 1813 (Primary HTS)]; format: functional
# [7] = alpha-synuclein stem-loop luciferase translation blockers – H4 neuroglioma cells, luminescence, confirmation (AID 1988); format: functional, cell-based
# Sequence of Luciferin 4-monooxygenase (P08659 whole entry): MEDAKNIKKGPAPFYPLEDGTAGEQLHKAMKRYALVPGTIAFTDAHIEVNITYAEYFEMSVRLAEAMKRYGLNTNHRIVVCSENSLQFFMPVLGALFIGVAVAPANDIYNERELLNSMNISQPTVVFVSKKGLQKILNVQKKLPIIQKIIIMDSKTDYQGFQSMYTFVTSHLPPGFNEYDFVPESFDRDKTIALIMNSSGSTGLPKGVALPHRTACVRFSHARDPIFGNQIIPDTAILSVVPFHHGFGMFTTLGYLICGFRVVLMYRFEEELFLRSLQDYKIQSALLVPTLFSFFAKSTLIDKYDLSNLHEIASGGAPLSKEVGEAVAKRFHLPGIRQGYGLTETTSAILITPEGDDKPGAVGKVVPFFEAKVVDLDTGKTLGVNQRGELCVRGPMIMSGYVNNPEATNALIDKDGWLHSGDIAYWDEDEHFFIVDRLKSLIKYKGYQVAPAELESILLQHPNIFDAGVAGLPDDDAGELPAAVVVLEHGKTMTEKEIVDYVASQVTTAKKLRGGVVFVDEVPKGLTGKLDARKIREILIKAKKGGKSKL
SMILES,EC50 [1],EC50 [2],further results
CCc1cccc(NC2c3ccccc3C(=O)N2c2cccnc2)c1 (configuration not stated),> 112 µM (not active),> 112 µM (not active),–
Nc1cccc(-c2nc3ccc(N)cc3s2)c1,2.3 µM (active),< 0.701 µM (active),–
O=C(O)C1C2CCC(C2)C1C(=O)Nc1ccccc1 (configuration not stated),> 112 µM (not active),> 112 µM (not active),–
CCCCCC(=O)O[C@]1(C(C)=O)CC[C@H]2[C@@H]3CCC4=CC(=O)CC[C@]4(C)[C@H]3CC[C@@]21C [HYDROXYPROGESTERONE CAPROATE],–,–,EC50 (Protein RecA): 4.88 µM (active); AC50 [3]: 11.9 µM (active)
O=C(c1ccco1)c1cn(CC(=O)N2CCCc3ccccc32)c2ccccc12,> 112 µM (not active),> 112 µM (not active),–
O=C(CN(Cc1ccccc1Cl)C(=O)c1ccc(CN2CCOCC2)o1)NCc1ccccc1,> 112 µM (not active),62.6 µM (active),–
C1CCC2(CC1)C1=C(CCCC1)Nc1nnnn12,–,–,EC50 (cells [4]): > 350 µM (not active); EC50 (cells [5]): > 350 µM (not active)
O=C(N1CCN(Cc2ccccc2)CC1)C12CC3CC(CC(C3)C1)C2,> 112 µM (not active),> 112 µM (not active),–
CCOC(=O)N1CCC(/N=c2/c(-c3ccccc3)c(O)c2=O)CC1,–,–,EC50 (cells [4]): > 350 µM (not active); EC50 (cells [5]): > 350 µM (not active)
C/C(CC(=O)Nc1ccc(F)cc1F)=N\NC(=O)C(=O)N1CCCCC1,–,–,EC50 (Protein RecA): 1.8 µM (active); AC50 [3]: 5 µM (active)
CCOC(=O)CNC(=O)CSc1nnc(Cn2cnc3ccccc32)n1C,–,–,EC50 (cells [4]): > 350 µM (not active); EC50 (cells [5]): > 350 µM (not active)
CCOC(=O)COc1cccc2c(=O)n(CC(=O)N3CCN(C(=O)OCC)CC3)ccc12,> 112 µM (not active),> 112 µM (not active),–
CCOC(=O)CSc1nc(=O)c(NCC(=O)OC)n[nH]1,–,–,EC50 (Protein RecA): 5.87 µM (active); AC50 [3]: 12 µM (active)
Nc1ncnc(N)c1N=Nc1ccccc1,–,–,EC50 [6]: 15.7 µM (active); EC50 [7]: 11.2 µM (active)
Cc1nn(-c2ccccc2)c2c1C(c1ccncc1)C(C#N)=C(N)O2 (configuration not stated),–,–,EC50 (Protein RecA): 3.05 µM (active); AC50 [3]: 12.7 µM (active)
CC1CCCC(C)N1C(=O)COC(=O)CNC(=O)c1sc2ccccc2c1Cl (configuration not stated),> 112 µM (not active),> 112 µM (not active),–
